Values after ≈ are worked out from the molar mass of the structure shown. Structures can show the parent of a compound that is named as a salt. Where two headings read alike, the source gives them in different places.
Experiments:
mdx mice [1] = assay: Dystrophin expression after intramuscular injection into TA muscles; assay type: in vivo; conditions: for dystrophin staining in TA muscles: mdx mice, two weeks after intramuscular injection, compared to DMSO alone; for number of dystrophin positive fibers: TA muscle of mdx mice, intramuscular injection, compound 5 compared with prodrugs
Text: FIG. 8 provides plots showing dystrophin expression after intramuscular injection. Panel (A) provides plots showing dystrophin staining in TA muscles of mdx mice injected with RTC13 or its derivatives and analyzed two weeks after delivery of compounds and compared to muscles treated with DMSO alone. Dystrophin expression was evident in muscles that received the compounds but not in sham-injected muscles. […] (N=4 muscles per compound; scale bar: 50 μ ? ) Panel (B) provides plots showing the number of dystrophin positive fibers determined across the length of the muscle. […] Shown here is the average number of dystrophin positive fibers per cross-sectional area containing the highest number of positives. (N=4 muscles per compound; *: p=0.0008; **: p≤0.04). RTC13: compound 5; […]: compound 16; […]: compound 20; […]: compound 12; and […]: compound 8.

Aqueous solubility = assay type: physicochemical
Protocol: The solubility of selected compounds was tested and compared to that of comparative compound 5. To 5 mg of each test compound, water was slowly added initially in 0.5 mL and then 0.1 mL increments with vortexing for approximately 1 minute in between each aliquot of water addition and visually inspected for homogeneity. […] Table 1 provides the aqueous solubility of various prodrugs.

[2] = Pharmacokinetics studies after oral administration of compound 8 (tissue levels); assay type: in vivo; conditions: C57BL/10 mice; for level in heart: oral compound 8 at 10 mg/kg and 30 mg/kg; for level in biceps / level in gastrocnemius: oral compound 8 at 10 mg/kg
Protocol: (§1) FIG. 19 provides plots showing the results of pharmacokinetics studies in C57BL/10 mice after oral administration of compound 8 in gastrocnemius. The compound was administered at the indicated dosages in 6-8 weeks old C57BL/10 mice and tissues were analyzed in gastrocnemius 15 min, 30 min, 1 hr, 4 hrs, 6 hrs, and 24 hrs after gavage. Compound 8 and RTC13 (compound 5) were not detected in muscles isolated from mice that received compound 8 at a dose of 10 mg/kg. RTC13: compound 5; and 13Y: compound 8.
as §1, with “FIG. 20” for “FIG. 19”, “in biceps.” for “in gastrocnemius.”, “in biceps” for “in gastrocnemius”, “6 hrs” for “6 hrs,”
as §1, with “FIG. 21 provides plots” for “FIG. 19 provides plots”, “8 in heart. The compound” for “8 in gastrocnemius. The compound”, “analyzed in heart 15 min,” for “analyzed in gastrocnemius 15 min,”, “of 10 mg/kg and 30 mg/kg. RTC13:” for “of 10 mg/kg. RTC13:”

mdx mice [3] = assay: Forelimb grip test after oral administration; assay type: in vivo; conditions: oral administration for up to one month
Text: (§2) FIG. 24 provides plots showing functional improvement in mdx mice after oral administration of compound 8 for up to one month. Panel (A) provides plots showing the forelimb grip test that was used to assess the effects of systemic administration of RTCs on muscle strength. […] (N=5 mice per treatment group; *p<0.05; **p<0.005). Panel (B) provides plots showing the results obtained using the wire test. […] (N=6 mice per treatment group; *p<0.05; **p=0.005). 13Y: compound 8.

mdx mice [4] = assay: In vitro force measurement of diaphragm muscles (eccentric contractions); assay type: in vivo
Protocol: FIG. 25 provides plots showing in vitro force measurement of diaphragm muscles of mdx mice treated with vehicle, compound 8 at a dose of 30 mg/kg or compound 8 at a dose of 60 mg/kg three times per day at intervals of 4 hrs for up to one month. Muscles isolated from untreated and treated mice muscles were subjected to a series of five eccentric contractions with a 5-min rest between contractions. Results were compared to those of wild type (C57BL/10) mice. Panel (A) provides plots showing the decrease in force (in percentage) obtaining following eccentric contractions over the course of the analyses. […] Plot (B) show the results of the decrement in force (in percentage) obtained in mice treated with compound 8. […] (N=4 mice per treatment group, *: p≤0.05; **: p≤0.03). 13Y: compound 8.

mdx mice [5] = assay: Wire test after oral administration; assay type: in vivo; conditions: oral administration for up to one month
Text: as §2

Serum chemistry analyses = assay type: in vivo; conditions: mdx mice; for serum levels of albumin, ALP, total bilirubin, LDH, cholesterol, total protein, and glucose: 30 or 60 mg/kg three times per day up to one month
Protocol: FIG. 26 provides the results of the serum chemistry analyses of mdx mice treated with vehicle, PTC 124 at a dose of 30 mg/kg, PTC 124 at a dose of 60 mg/kg, compound 8 at a dose of 30 mg/kg or compound 8 at a dose of 60 mg/kg three times per day at intervals of 4 hrs for up to one month. […] Values are expressed as mean plus or minus Standard Deviation (±SD). The symbol * indicates statistical significance compared to mdx treated with vehicle only. The symbol † indicates statistical significance compared to wild type (C57BL/10) untreated mice. (N=4 mice per treatment group; p≤0.05). 13Y: compound 8.

mdx mice [6] = assay: Dystrophin expression in muscles after oral administration for one month; assay type: in vivo; conditions: three times per day for one month, 30 mg/kg or 60 mg/kg
Protocol: FIG. 23 provides images of microscopic images obtained from muscles isolated from mdx mice after oral administration of compound 8. Compounds were administered in 6-8 weeks old mdx mice three times per day for one month at the indicated dosages. Dystrophin expression was evident in muscles that received the compounds but not in sham-injected muscles. […] 13Y: compound 8.

[7] = Duchenne boys; cited from earlier work
[8] = biological target: FLuc (firefly luciferase) reporter (Photinus pyralis, UniProt P08659); conditions: cited from earlier work
Chain of FLuc (firefly luciferase) reporter (P08659 whole entry): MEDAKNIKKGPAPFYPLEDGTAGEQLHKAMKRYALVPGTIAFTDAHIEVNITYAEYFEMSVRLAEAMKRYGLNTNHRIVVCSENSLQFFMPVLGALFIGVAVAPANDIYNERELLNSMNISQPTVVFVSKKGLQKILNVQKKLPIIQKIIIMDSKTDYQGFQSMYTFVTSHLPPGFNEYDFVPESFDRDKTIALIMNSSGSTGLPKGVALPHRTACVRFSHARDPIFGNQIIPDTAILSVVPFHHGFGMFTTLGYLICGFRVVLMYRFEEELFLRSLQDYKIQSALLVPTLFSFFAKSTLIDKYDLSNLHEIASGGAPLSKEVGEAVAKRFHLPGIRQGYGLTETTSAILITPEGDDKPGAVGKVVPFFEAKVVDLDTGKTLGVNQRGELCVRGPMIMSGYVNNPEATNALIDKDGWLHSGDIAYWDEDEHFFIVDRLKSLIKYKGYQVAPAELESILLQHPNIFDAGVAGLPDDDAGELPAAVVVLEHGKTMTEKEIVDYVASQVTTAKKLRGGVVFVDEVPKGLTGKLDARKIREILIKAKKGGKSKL

[9] = test system: normal termination codons; conditions: cited from earlier work
[10] = phase-I clinical study in cystic fibrosis; cited from earlier work
[11] = test system: lymphoblastoid cell lines derived from A-T patients; conditions: each of the three types of nonsense mutations (TGA>TAA>TAG); cited from earlier work
mdx mice [12] = conditions: cited from earlier work
mdx cells = conditions: cells in culture; cited from earlier work
[13] = thermodynamic from solid, water, ambient pH, room temperature, read-out: Solubility in (mg/mL) water at ambient pH, at room temperature

gentamicin
dystrophin staining in TA muscles (mdx mice [1]): Weak expression

CC(C)(C)c1ccc(O)c(N=Cc2cccc([N+](=O)[O-])c2)c1 [RTC14]
dystrophin staining in TA muscles (mdx mice [1]): Weak expression

O=C(CN1CCOCC1)/N=C1\NC(=O)/C(=C/c2ccc(-c3ccccc3[N+](=O)[O-])o2)S1 [Compound 20, 2-(morpholin-4-yl)-7V-[(2£′,5Z)-5-{[5-(2-nitrophenyl)furan-2-yl]methylidene}-4-oxo-1,3-thiazolidin-2-ylidene] acetamide]
number of dystrophin positive fibers (mdx mice [1]): compound 5 showed a significantly higher number of positive fibers | solubility (Aqueous solubility; [13]): 0.1 mg/mL (≈ 226 µM)

CN1CCN(CC(=O)/N=C2\NC(=O)/C(=C/c3ccc(-c4ccccc4[N+](=O)[O-])o3)S2)CC1 [Compound 8, 2-(4-methylpiperazin-1-yl)-7V-[(2£′,5Z)-5-{[5-(2-nitrophenyl)furan-2-yl]methylidene}-4-oxo-1,3-thiazolidin-2-ylidene]acetamide dihydrochloride]
level in heart [2]: not detected | level in biceps [2]: not detected | level in gastrocnemius [2]: not detected | muscle strength, forelimb grip test (mdx mice [3]): significant force recovery | decrease in force (in percentage) following eccentric contractions (mdx mice [4]; 30 mg/kg and 60 mg/kg three times per day up to one month): improvement if loss of force was detected | decrement in force (in percentage) (mdx mice [4]; 60 mg/kg three times per day, compared to vehicle only): significantly lower | average hanging time, wire test (mdx mice [5]): more significant than that of sham-injected mice or mice treated with PTC 124 | number of dystrophin positive fibers (mdx mice [1]): No significant differences | solubility (Aqueous solubility; [13]): 3.3 mg/mL | serum levels of albumin, ALP, total bilirubin, LDH, cholesterol, total protein, and glucose (Serum chemistry analyses): within normal range | alanine aminotransferase (ALT) (Serum chemistry analyses; compared to vehicle alone): decrease | blood urea nitrogen (BUN) (Serum chemistry analyses; compared to vehicle alone): decrease | creatinine (Serum chemistry analyses; compared to vehicle alone): decrease | dystrophin expression in muscles (mdx mice [6]): higher levels of dystrophin expression than muscles obtained from mdx mice treated with PTC124

O=C1N/C(=N\C(=O)C2CCNCC2)S/C1=C\c1ccc(-c2ccccc2[N+](=O)[O-])o1 [Compound 16, N-[(2ii,5Z)-5-{[5-(2-nitrophenyl)furan-2-yl]methylidene}-4-oxo-1,3-thiazolidin-2-ylidene]piperidine-4-carboxamide hydrochloride]
number of dystrophin positive fibers (mdx mice [1]): compound 5 showed a significantly higher number of positive fibers | solubility (Aqueous solubility; [13]): 0.18 mg/mL

O=C(O)c1cccc(-c2noc(-c3ccccc3F)n2)c1 [PTC124]
muscle strength, forelimb grip test (mdx mice [3]): No significant improvements | efficacy in clinical trials [7]: indeterminate efficacy | effect on reporter [8]: direct effect on the FLuc (firefly luciferase) reporter | average hanging time, wire test (mdx mice [5]): No significant improvements | read-through of normal termination (stop) codons [9]: does not induce ribosomal readthrough of normal stop codons | readthrough activity compared to aminoglycosides [10]: more efficient readthrough activity than aminoglycosides | tolerability [10]: generally well tolerated | serum levels of albumin, ALP, total bilirubin, LDH, cholesterol, total protein, and glucose (Serum chemistry analyses): within normal range

CN(C)CC(=O)/N=C1\NC(=O)/C(=C/c2ccc(-c3ccccc3[N+](=O)[O-])o2)S1 [Compound 12, (£)-N^2,N^2-dimethyl-7V-[(5Z)-5-{[5-(2-nitrophenyl)furan-2-yl]methylidene}-4-oxo-1,3-thiazolidin-2-ylidene]glycinamide hydrochloride]
number of dystrophin positive fibers (mdx mice [1]): No significant differences | solubility (Aqueous solubility; [13]): 10 mg/mL

N=C1NC(=O)/C(=C/c2ccc(-c3ccccc3[N+](=O)[O-])o2)S1 [Compound 5, (5Z)-2-imino-5-([5-(2-nitrophenyl)furan-2-yl]methylidene)-1,3-thiazolidin-4-one]
level in heart [2]: not detected | level in biceps [2]: not detected | level in gastrocnemius [2]: not detected | activity in A-T lymphoblastoid cell lines [11]: biological activity | Dystrophin protein detection in muscle groups (mdx mice [12]; including diaphragm and heart): detected in all muscle groups analyzed | creatine kinase (CK) levels (mdx mice [12]; marker of muscle degeneration): decrease | Dystrophin compared to PTC 124 (mdx mice [12]; mdx mice): significantly higher | muscle strength (mdx mice [12]; over mice that did not receive the RTCs): significant increase in muscle strength | dystrophin expression in skeletal muscles (mdx mice [12]; systemic administration, mdx mice): restores functional levels of dystrophin expression | full-length dystrophin in mdx cells (mdx cells): restored full-length dystrophin | number of dystrophin positive fibers (mdx mice [1]): significantly higher number of positive fibers than muscles that received compounds 16 and 20 | read-through of normal termination (stop) codons [9]: not read-through normal termination codons | solubility (Aqueous solubility): low solubility | dissolution in water (Aqueous solubility; diluted to IL with water, vigorously stirred for up to 12 hr): did not appear to dissolve fully | solubility (Aqueous solubility; [13]): < 0.005 mg/mL

Source: US10287283B2, “Read-through compound prodrugs suppressing premature nonsense mutations” (The Regents of the University of California, priority 2014, dated 2019)
